In US20080318803A1, “Biomarkers for Monitoring Impdh Pathway Inhibition” (VERTEX PHARMACEUTICALS, priority 2004, published 2008):
Where two headings read alike, the source gives them in different places.

Key:
[1] = test system: PBMCs PHA-T cell; experiment: PBMC proliferation assay (PHA-stimulated T cells); type: cell-based, human; details: for IC50: Homo sapiens, PBMC
From the text: Monitoring gene expression patterns offers an alternative approach for optimizing the therapeutic window as compared with the traditional method of measuring drug concentrations in blood and correlating either the AUC or Cmax levels with a clinical response. Towards that end, the inventors have comprehensively evaluated several genes affected by treatment with two distinct IMPDH inhibitors in vitro, as potential readouts for assessing their biological activity. The genes that are listed in Tables I through VIII are particularly useful in the present invention. These genes were identified using the specific methods as follows: Most cell culture reagents, unless specified otherwise, were obtained from Gibco-BRL or JRH Biologicals. Complete RPMI was prepared by adding up to a final of 10% heat-inactivated fetal bovine serum (FBS), 55 μM β mercaptoethanol, 50 units/mL penicillin with 50 μg/mL streptomycin, 300 μg/ml L-glutamine and 10 mM HEPES pH 7.5 to RPMI1640. Stock solutions of Phyto-hemagglutinin (PHA-P, Difco) was prepared in FBS-free RPMI and stored at −20° C. VX-944, and MPA (Sigma-Aldrich or Calbiochem), were dissolved in DMSO at a concentration of 20 mM and stored at −20° C.
Peripheral blood mononuclear cells (PBMCs) and T cells were isolated as follows: Human venous blood was drawn from healthy volunteers using heparin as an anti-coagulant. PBMCs were isolated from blood by centrifugation over Ficoll-paque gradient or CPT tubes (Becton-Dickinson, Calif.), using standard conditions. PBMCs were harvested, washed and resuspended in complete RPMI, counted and diluted to 1×10^6 cells/ml.
In order to monitor PBMC proliferation assay, human PBMC derived T cells (5×10^4 cells/well), were added to 96-well plates. PHA was added up to a final concentration of 10-20 μg/mL per well for stimulating T cells. The mitogen SPAS was used at a final concentration of 2 mg/mL. DMSO was maintained at a final concentration of 0.1%.

[2] = test system: HL-60 cells; experiment: Affymetrix array transcript profiling in HL-60 cells, 14 h (early) and 30 h (late); type: cell-based, human
Experimental: The above agents were tested in HL-60 cells at a concentration of 500 nM for VX-944 and 1000 nM for MPA or with 0.1% DMSO as the vehicle control. The cells were harvested at 14 or 30 hours post addition of compound or vehicle. Briefly, the culture medium was removed at the appropriate time-points and the cells washed with PBS. The cells were then harvested, and pelleted by-gentle centrifugation. The supernatant was discarded and the pellets snap-frozen on an ethanol/dry-ice slurry. RNA was isolated from cells by using a RNEasy kit from Qiagen. RNAs were quality controlled using the Agilent 2100 Bioanalyzer to determine the presence of RNAs.
Data from the arrays corresponding to VX-944 and MPA at the two time-points—14 hours (Early) and 30 hours (Late) were analyzed using Spotfire™, microarray data analysis software. Some of the data analysis parameters used are outlined below:
a) All the arrays were normalized by using trimmed means, with a 5% exclusion limit
b) Only genes present in at least 5 of the 6 chips used for the analyses were included in the genesets
c) Only statistically significant genes (ANOVA, p<0.05) were included in the final analyses to generate gene lists.
At the late (30 h) time-point, 335 genes were identified as overlapping between the VX-944 and MPA datasets. […] With MPA 66 genes are in common between the two time-points. As to a comparison between the two data sets, of the 102 genes modulated by VX-944 and the 66 genes modulated by MPA, 43 genes […]. To add additional value to the gene lists and provide additional information to the investigator, the genes underlying each of these expression patterns was queried against publicly available databases. These databases included Locus Link, Gene Cards, KEGG, GO annotations, OMIM, PubMed. The information gathered from such an analysis is organized below in data tables.

[3] = test system: genes responsive to IMPDH inhibition; experiment: Gene chip analysis of genes responsive to IMPDH inhibition (18 gene chips, 8793 genes); type: cell-based; details: for No. genes modulated: of 3421 genes common to all 18 gene chips
From the text: The present invention is directed to methods and compositions for using biomarkers that are responsive to changes in IMPDH activity levels.

[4] = test system: PBMC cells; experiment: Gene expression changes in resting and PHA-stimulated (proliferating) PBMCs treated with VX-944; type: cell-based, human; details: proliferating lymphocytes; out of 67 genes
[5] = target: both IMPDH isozymes; details: cited from earlier work
[6] = test system: human peripheral lymphocytes; details: cited from earlier work
[7] = read-out: PBMCs PHA-T cell IC50
[8] = read-out: PHA-T cell IC50 in the presence of guanosine
[9] = common to early (14 h) and late (30 h)
[10] = treated vs. DMSO, early (14 h), VX-944 500 nM, MPA 1000 nM

Structure (SMILES)	Ratio of PHA-T cell IC50 in the presence and absence of guanosine [1]	IC50 [1, 7]	IC50 [1, 8]	Number of Genes Downregulated [2, 9]	Number of Genes Total [2, 9]	Number of Genes Upregulated [2, 9]	Number of Genes Downregulated ([2]; treated vs. DMSO, early (14 h))	Number of Genes Total ([2]; treated vs. DMSO, early (14 h))	Number of Genes Upregulated [2, 10]	Number of Genes Downregulated ([2]; treated vs. DMSO, late (30 h))	Number of Genes Total ([2]; treated vs. DMSO, late (30 h))	Number of Genes Upregulated ([2]; treated vs. DMSO, late (30 h))	No. genes modulated: Decreased [3]	No. genes modulated: Increased [3]	No. genes modulated [3]	further results
COc1cc(NC(=O)Nc2cccc(CNC(=O)O[C@H]3CCOC3)c2)ccc1-c1cnco1 [VX-497]	62	105 nM	6500 nM	–	–	–	–	–	–	–	–	–	–	–	–	–
COc1c(C)c2c(c(O)c1C/C=C(\C)CCC(=O)O)C(=O)OC2 [MPA, Mycophenolic acid]	>224	89 nM	> 20000 nM	0	66	66	0	105	105	560	1162	602	36	39	75	FOLD CHANGE (MPA, EARLY) ([2]; gene ALG6): 1.5; FOLD CHANGE (MPA, EARLY) ([2]; gene C6orf18): 1.5; FOLD CHANGE (MPA, EARLY) ([2]; gene C8orf2): 1.5; FOLD CHANGE (MPA, EARLY) ([2]; gene C21orf4): 1.5; FOLD CHANGE (MPA, EARLY) ([2]; gene CLECSF5): 1.5; FOLD CHANGE (MPA, EARLY) ([2]; gene FBXO5): 1.6; FOLD CHANGE (MPA, EARLY) ([2]; gene FLJ10852 (HIP14L)): 1.5; FOLD CHANGE (MPA, EARLY) ([2]; gene KLHL2): 1.6; FOLD CHANGE (MPA, EARLY) ([2]; gene MGC13024): 1.5; FOLD CHANGE (MPA, EARLY) ([2]; gene MLC-B (MRLC2)): 1.8; FOLD CHANGE (MPA, EARLY) ([2]; gene RAGD): 1.5; FOLD CHANGE (MPA, EARLY) ([2]; gene RPAC2 (POLR1D)): 1.5; FOLD CHANGE (MPA, EARLY) ([2]; gene SNX10): 1.5; FOLD CHANGE (MPA, EARLY) ([2]; gene TMEM8): 1.7; FOLD CHANGE (MPA, EARLY) ([2]; gene TOPK): 1.5
CC[C@H](CC#N)OC(=O)N[C@@H](C)c1cccc(NC(=O)Nc2ccc(-c3cnco3)c(OC)c2)c1 [VX-944]	373	21 nM	7800 nM	0	102	102	119	291	172	0	434	434	60	46	106	potency in cell assays relative to MPA ([1]; VX-944 vs MPA): 3-4 fold; number of genes implicated in cancers that are down-regulated [4]: 4; Ki [5]: 7 to 10 nM; inhibition of lymphocyte proliferation on addition of guanosine ([6]; 50 μM guanosine): alleviated; potency in inhibiting lymphocyte proliferation compared with other IMPDH inhibitors ([6]; stimulated with either T or B-cell mitogens): more potent than VX-497 or MPA; IC50 ([6]; stimulated with either T or B-cell mitogens, read-out: IC50, inhibition of proliferation of human peripheral lymphocytes): 20 to 100 nM
